This assay has as its system MRSA NCTC 12493. Description: Ex vivo porcine skin infection model. Details: species or system Methicillin‐resistant S. aureus. As to conditions: vancomycin 8 μM, 4 h. On the procedure:
The antibacterial efficacy of OG9 and OG9c‐De‐NH2 was further evaluated in an ex vivo porcine skin model, as reported.[27] The porcine skin was shaved and cleaned with 70% ethanol and dd H2O. The polyethylene tubing was glued to the cleaned skin surface with cyanoacrylate glue. Exponential or persister cells were inoculated to infect each skin sample. After 15 min of incubation at 37°C, each skin sample was treated with peptides at concentrations of 1 × or 10 × MIC or vancomycin (8 μM). After another 4 h of incubation, each tubing well was washed with PBS. Ten microliters of the mixture in each well was diluted with PBS buffer and spotted on the agar plate. The number of viable bacteria cells was counted after overnight incubation. The experiments were conducted in three independent runs.

1 compound from PMC10243163, “A frog‐derived antimicrobial peptide as a potential anti‐biofilm agent in combating Staphylococcus aureus skin infection” (Journal of Cellular and Molecular Medicine, 2023) can be followed below.

For `CN[C@H](CC(C)C)C(=O)N[C@H]1C(=O)N[C@@H](CC(N)=O)C(=O)N[C@H]2C(=O)N[C@H]3C(=O)N[C@H](C(=O)N[C@H](C(=O)O)c4cc(O)cc(O)c4-c4cc3ccc4O)[C@H](O)c3ccc(c(Cl)c3)Oc3cc2cc(c3O[C@@H]2O[C@H](CO)[C@@H](O)[C@H](O)[C@H]2O[C@H]2C[C@](C)(N)[C@H](O)[C@H](C)O2)Oc2ccc(cc2Cl)[C@H]1O` [Vancomycin], the “Ex vivo effect on exponential MRSA cells” value is recorded as “weak inhibiting effect”.
